These results are taken from ChEMBL document CHEMBL3774389, “C-3 benzoic acid derivatives of C-3 deoxybetulinic acid and deoxybetulin as HIV-1 maturation inhibitors” (Bioorg Med Chem, 2016).

Each structure is given as a SMILES string.

Series [1] in a line: Cytotoxicity against human MT2 cells assessed as cell viability by redox dye assay. Format: cell-based.
The test system of series [2] is Human immunodeficiency virus 1. The series is described as follows: Antiviral activity against wild type HIV1 NLRepRlucP373S infected in human MT2 cells after 4 to 5 days by luciferase report gene based multiple cycle drug susceptibility assay. Format: functional, organism-based. To be noted: Human immunodeficiency virus 1, NLRepRlucP373S.
The subject of series [3] is Human immunodeficiency virus 1. The series can be described thus: Antiviral activity against HIV1 containing gag V370A mutant infected in human MT2 cells after 4 to 5 days by luciferase report gene based multiple cycle drug susceptibility assay. To be noted: Human immunodeficiency virus 1, MT2. Format: functional, organism-based.
Series [4] concerns Human immunodeficiency virus 1. The series is described as follows: Antiviral activity against wild type HIV1 NLRepRlucP373S infected in human MT2 cells after 4 to 5 days in presence of 15 mg/ml HSA by luciferase report gene based multiple cycle drug susceptibility assay. Type of series: functional, organism-based. To be noted: Human immunodeficiency virus 1, NLRepRlucP373S.
For series [5], the system named is Human immunodeficiency virus 1. The series is described as follows: Ratio of EC50 for HIV1 NLRepRlucP373S infected in human MT2 cells in presence of HSA to EC50 for HIV1 NLRepRlucP373S infected in human MT2 cells in absence of HSA. Format: functional.

As for `C=C(C)[C@@H]1CC[C@]2(C(=O)O)CC[C@]3(C)[C@H](CC[C@@H]4[C@@]5(C)CC=C(c6ccc(NC(=O)CCC(=O)O)cc6)C(C)(C)[C@@H]5CC[C@]43C)[C@@H]12`, in series [1], the CC50 stood at 7.73 µM. Further, the values for the EC50 in series [2] and in series [3] were 1.47 µM and 1.57 µM, respectively.

With `C=C(C)[C@@H]1CC[C@]2(C(=O)O)CC[C@]3(C)[C@H](CC[C@@H]4[C@@]5(C)CC=C(c6ccc(/C=C/C(=O)O)cc6)C(C)(C)[C@@H]5CC[C@]43C)[C@@H]12`, in series [1], the CC50 is above 8 µM. In addition, the EC50 in series [2] came to 0.734 µM.

As to `C=C(C)[C@@H]1CC[C@]2(CO)CC[C@]3(C)[C@H](CC[C@@H]4[C@@]5(C)CC=C(c6ccc(C(=O)O)c(Cl)c6)C(C)(C)[C@@H]5CC[C@]43C)[C@@H]12`, in series [1], the CC50 came to 1.97 µM. In addition, the figures for the EC50 in series [2], in series [3] and in series [4] were 0.024 µM, 0.262 µM and 0.094 µM, respectively. In addition, the “Ratio EC50” value in series [5] worked out at 3.9.

With `C=C(C)[C@@H]1CC[C@]2(CO)CC[C@]3(C)[C@H](CC[C@@H]4[C@@]5(C)CC=C(c6ccc(C(=O)O)c(C(=O)O)c6)C(C)(C)[C@@H]5CC[C@]43C)[C@@H]12`, the CC50 in series [1] was above 20 µM. Further, the EC50 in series [2] amounted to 0.038 µM; in series [3], 0.212 µM.

`C=C(C)[C@@H]1CC[C@]2(C(=O)O)CC[C@]3(C)[C@H](CC[C@@H]4[C@@]5(C)CC=C(c6ccc(C(=O)NC)cc6)C(C)(C)[C@@H]5CC[C@]43C)[C@@H]12`: the CC50 in series [1] is 22.6 µM. This molecule also returned an EC50 in series [2] of 1.6 µM.

With `C=C(C)[C@@H]1CC[C@]2(C(=O)O)CC[C@]3(C)[C@H](CC[C@@H]4[C@@]5(C)CC=C(c6cccc(CCC(=O)O)c6)C(C)(C)[C@@H]5CC[C@]43C)[C@@H]12`, the CC50 in series [1] turned out to be 1.83 µM. Further, the response in series [2] was half-maximal at 0.571 µM (EC50).

Turning to `C=C(C)[C@@H]1CC[C@]2(C(=O)O)CC[C@]3(C)[C@H](CC[C@@H]4[C@@]5(C)CC=C(c6ccc(C#N)cc6)C(C)(C)[C@@H]5CC[C@]43C)[C@@H]12`, the CC50 in series [1] worked out at 4.45 µM. Moreover, the EC50 in series [2] is above 1.6 µM.

Consider `C=C(C)[C@@H]1CC[C@]2(C(=O)O)CC[C@]3(C)[C@H](CC[C@@H]4[C@@]5(C)CC=C(c6cccc(-c7nn[nH]n7)c6)C(C)(C)[C@@H]5CC[C@]43C)[C@@H]12`, for which the CC50 in series [1] was 10.5 µM. This molecule also registered an EC50 in series [2] above 8 µM.

As to `C=C(C)[C@@H]1CC[C@]2(CO)CC[C@]3(C)[C@H](CC[C@@H]4[C@@]5(C)CC=C(c6ccc(C(=O)O)cc6Cl)C(C)(C)[C@@H]5CC[C@]43C)[C@@H]12`, the CC50 in series [1] came to 17.3 µM. Also, the values for the EC50 in series [2], in series [3] and in series [4] were 0.114 µM, above 4 µM and 0.117 µM, respectively. Besides, the “Ratio EC50” value in series [5] is reported as 1.

Turning to `C=C(C)[C@@H]1CC[C@]2(CO)CC[C@]3(C)[C@H](CC[C@@H]4[C@@]5(C)CC=C(c6ccc(-c7nn[nH]n7)cc6)C(C)(C)[C@@H]5CC[C@]43C)[C@@H]12`, the CC50 in series [1] worked out at 34.3 µM. Besides, the EC50 in series [2] was 3.4 µM; in series [3], above 4 µM.

As for `C=C(C)[C@@H]1CC[C@]2(C(=O)O)CC[C@]3(C)[C@H](CC[C@@H]4[C@@]5(C)CC=C(c6ccc(C(=O)NS(=O)(=O)C(C)C)cc6)C(C)(C)[C@@H]5CC[C@]43C)[C@@H]12`, the CC50 in series [1] came out at 8.68 µM. For the same molecule, the EC50 in series [2] amounted to 0.124 µM; in series [3] it was 0.937 µM; in series [4], 0.275 µM. Also, the “Ratio EC50” value in series [5] is recorded as 2.2.

Take `C=C(C)[C@@H]1CC[C@]2(CO)CC[C@]3(C)[C@H](CC[C@@H]4[C@@]5(C)CC=C(c6ccc(C(=O)O)c(O)c6)C(C)(C)[C@@H]5CC[C@]43C)[C@@H]12`: in series [1], the CC50 worked out at 9.76 µM. For the same molecule, the concentration for a half-maximal effect (EC50) in series [2] was 0.081 µM; in series [3], 2.78 µM; in series [4] it was 0.065 µM. In series [5], the “Ratio EC50” value turned out to be 0.8.

Regarding `C=C(C)[C@@H]1CC[C@]2(CO)CC[C@]3(C)[C@H](CC[C@@H]4[C@@]5(C)CC=C(c6ccc(C(=O)O)c(OC)c6)C(C)(C)[C@@H]5CC[C@]43C)[C@@H]12`, the CC50 in series [1] stood at 28.7 µM. In addition, the results for the EC50 in series [2], in series [3] and in series [4] were 0.513 µM, above 4 µM and 1.19 µM, respectively. Further, the “Ratio EC50” value in series [5] was determined as 2.3.

Take `C=C(C)[C@@H]1CC[C@]2(C(=O)O)CC[C@]3(C)[C@H](CC[C@@H]4[C@@]5(C)CC=C(c6ccn(CC(=O)O)n6)C(C)(C)[C@@H]5CC[C@]43C)[C@@H]12`: the CC50 in series [1] was above 30 µM. The figures for the 50% effective concentration (EC50) in series [2] and in series [3] were 0.167 µM and above 3 µM, respectively.

Regarding `C=C(C)[C@@H]1CC[C@]2(CO)CC[C@]3(C)[C@H](CC[C@@H]4[C@@]5(C)CC=C(c6csc(C(=O)O)c6)C(C)(C)[C@@H]5CC[C@]43C)[C@@H]12`, in series [1], the CC50 is 14.1 µM. Further, the EC50 in series [2] was 0.38 µM; in series [3], above 2 µM.

For the molecule `C=C(C)[C@@H]1CC[C@]2(CO)CC[C@]3(C)[C@H](CC[C@@H]4[C@@]5(C)CC=C(c6cc(C(=O)O)[nH]n6)C(C)(C)[C@@H]5CC[C@]43C)[C@@H]12`, the CC50 in series [1] came to 0.57 µM. The EC50 in series [2] was found to be 0.061 µM; in series [3], 0.348 µM.

Regarding `C=C(C)[C@@H]1CC[C@]2(C(=O)O)CC[C@]3(C)[C@H](CC[C@@H]4[C@@]5(C)CC=C(c6cccc(C(=O)O)c6)C(C)(C)[C@@H]5CC[C@]43C)[C@@H]12`, the cytotoxic concentration (CC50) in series [1] turned out to be 13.8 µM. For the same molecule, the EC50 in series [2] was above 8 µM.

Take `C=C(C)[C@@H]1CC[C@]2(CO)CC[C@]3(C)[C@H](CC[C@@H]4[C@@]5(C)CC=C(c6ccc(C(=O)O)cn6)C(C)(C)[C@@H]5CC[C@]43C)[C@@H]12`: the CC50 in series [1] was 4.3 µM. Further, the EC50 in series [2] was 0.503 µM; in series [3], above 2 µM.

On to `C=C(C)[C@@H]1CC[C@]2(C(=O)O)CC[C@]3(C)[C@H](CC[C@@H]4[C@@]5(C)CC=C(c6ccc(O)cc6)C(C)(C)[C@@H]5CC[C@]43C)[C@@H]12`, for which the CC50 in series [1] was 13.4 µM. Also, the EC50 in series [2] was 0.308 µM; in series [4] it was above 8 µM.

As for `C=C(C)[C@@H]1CC[C@]2(C(=O)O)CC[C@]3(C)[C@H](CC[C@@H]4[C@@]5(C)CC=C(c6cccc(NS(C)(=O)=O)c6)C(C)(C)[C@@H]5CC[C@]43C)[C@@H]12`, in series [1], the CC50 stood at 12.7 µM. The molecule further displayed an EC50 in series [2] of 2.13 µM.

Regarding `C=C(C)[C@@H]1CC[C@]2(C(=O)O)CC[C@]3(C)[C@H](CC[C@@H]4[C@@]5(C)CC=C(c6ccc(C(=O)O)s6)C(C)(C)[C@@H]5CC[C@]43C)[C@@H]12`, the CC50 in series [1] worked out at 0.79 µM. Further, the EC50 was 0.059 µM in series [2] and above 2 µM in series [3].

For the molecule `C=C(C)[C@@H]1CC[C@]2(C(=O)O)CC[C@]3(C)[C@H](CC[C@@H]4[C@@]5(C)CC[C@H](OC(=O)CC(C)(C)CC(=O)O)C(C)(C)[C@@H]5CC[C@]43C)[C@@H]12`, in series [1], the CC50 came out at 4.25 µM. For the same molecule, the EC50 was determined as 0.004 µM in series [2] and 0.909 µM in series [4]. For the same molecule, the “Ratio EC50” value in series [5] was 227.

Consider `C=C(C)[C@@H]1CC[C@]2(C(=O)O)CC[C@]3(C)[C@H](CC[C@@H]4[C@@]5(C)CC=C(c6ccc(CCC(=O)O)cc6)C(C)(C)[C@@H]5CC[C@]43C)[C@@H]12`, for which the CC50 in series [1] was 6.55 µM. Moreover, in series [2], the EC50 was 0.682 µM.

For the molecule `C=C(C)[C@@H]1CC[C@]2(C(=O)O)CC[C@]3(C)[C@H](CC[C@@H]4[C@@]5(C)CC=C(c6ccc(-c7cnc8ccccc8c7C(=O)O)cc6)C(C)(C)[C@@H]5CC[C@]43C)[C@@H]12`, the CC50 in series [1] is 15.9 µM. The molecule further yielded an EC50 in series [2] of 3.6 µM.

Take `C=C(C)[C@@H]1CC[C@]2(C(=O)O)CC[C@]3(C)[C@H](CC[C@@H]4[C@@]5(C)CC=C(c6cccc(S(=O)(=O)NC)c6)C(C)(C)[C@@H]5CC[C@]43C)[C@@H]12`: the CC50 in series [1] worked out at 13 µM. For the same molecule, the response in series [2] was half-maximal at 1.23 µM (EC50).

`C=C(C)[C@@H]1CC[C@]2(C(=O)O)CC[C@]3(C)[C@H](CC[C@@H]4[C@@]5(C)CC=C(c6ccc(S(C)(=O)=O)cc6)C(C)(C)[C@@H]5CC[C@]43C)[C@@H]12`: in series [1], the CC50 came out at 9.72 µM. In addition, the EC50 in series [2] stood at 2.52 µM.

Consider `C=C(C)[C@@H]1CC[C@]2(CO)CC[C@]3(C)[C@H](CC[C@@H]4[C@@]5(C)CC=C(c6ccc([N+](=O)[O-])cc6)C(C)(C)[C@@H]5CC[C@]43C)[C@@H]12`, for which the CC50 in series [1] is 20 µM. Further, the EC50 in series [2], in series [3] and in series [4] was above 4 µM throughout.

`C=C(C)[C@@H]1CC[C@]2(C(=O)O)CC[C@]3(C)[C@H](CC[C@@H]4[C@@]5(C)CC=C(c6ccc(C7(C(=O)O)CC7)cc6)C(C)(C)[C@@H]5CC[C@]43C)[C@@H]12`: the CC50 in series [1] is above 8 µM. Moreover, the results for the EC50 in series [2] and in series [3] were 0.215 µM and 0.633 µM, respectively.

Consider `C=C(C)[C@@H]1CC[C@]2(CO)CC[C@]3(C)[C@H](CC[C@@H]4[C@@]5(C)CC=C(c6ccc(NS(C)(=O)=O)cc6)C(C)(C)[C@@H]5CC[C@]43C)[C@@H]12`, for which the CC50 in series [1] came to 8.82 µM. The EC50 in series [2], in series [3] and in series [4] was above 1.6 µM each time.

In the case of `C=C(C)[C@@H]1CC[C@]2(C(=O)O)CC[C@]3(C)[C@H](CC[C@@H]4[C@@]5(C)CC=C(c6ccccc6CCC(=O)O)C(C)(C)[C@@H]5CC[C@]43C)[C@@H]12`, in series [1], the CC50 stood at 5.03 µM. For the same molecule, the EC50 in series [2] was 3.2 µM.
